Assays:
human neutrophils = test: Formation of labeled AAGPC+LA-paf by neutrophils (FIG. 4); assay type: cell-based; conditions: 0.25% BSA
Procedure: The non-differentiated washed blood leukocytes incorporate here [^3H]alkyl-paf with intermediate of [^3H]alkyl-lyso paf and form alkyl lipids (AAGPC+LA paf) in a saturated manner (A: 0.65 nM vs. B: 6.5 nM) wherein unlabelled paf fails to replace (B, 5 nM). Thus, at least one non-specific transport protein is indicated (e.g. acetylhydrolase) on undifferentiated cells. The less differentiated cells are invented here as a model for monocytes, endothelial cells, glia cells, cartilage cells, adipocytes, endogenous stem cells etc. The acetylhydrolases on plasma membranes of leukocytes remove alkyl lipids and these cells are then pre-activated, differentiated and ready to emigrate. Non-specific antagonists e.g. free albumin protect against alkyl ligands and compete with cells for binding of alkyl lipids. The fatty decline of cells in the entire organisms is clinically healed here. […]
Washed intact cells were incubated with normal or excess concentrations of [^3H]-alkyl-paf forming then the stable amount of AAGPC & LA (A: 0.65 nM or B: 6.5 nM). […] Values are expressed as percent of added label (2.5×10^6 cells/500μl, 0.25% BSA, n=3, see R.-M. Korth, Int. Arch. All. Imm. 113, p 460-464, 1997). […]

[1] = target: T1, paf receptors of formaldehyde-treated platelets (Homo sapiens, UniProt P25105); test: Binding of [3H]alkyl-paf to formaldehyde-fixed platelets (FIGS. 6 and 7); conditions: 30 min; for inhibition of bound [3H]alkyl-paf to stiffened platelets: FIG. 7, [3H]alkyl-paf 0.65 nM, 20° C., n=4
T1 construct: endogenous in cells; host or cells: washed platelets fixed with 1% formaldehyde for 30 min
Procedure: An extract of whole blood, namely “biological paf” replaces [^3H]alkyl-paf out of the binding and bind to similar alkyl receptors. This competitive inhibition is paralleled with similar effects of synthetic paf and with Ginkgoloides wherein WEB 2086 is used here as the known guiding substance for chlorobenzo(dia)zepines.
“Biological paf” is used here for the first time as non-separated ethanol extract of whole blood (without HPLC). This dry extract is diluted before it is quantified using aggregation of rabbit platelets in the presence of aspirin and CP/CPK. The novel methods allow for the first time testings without albumin so that alkyl ligands with lower cell affinity compared to albumin can bind in a detectable manner. For example, alkyl lipids without the choline group (alkyl-LPA) bind otherwise in deeper regions of the membranes of untreated cells and/or are rapidly incorporated into free albumin. In addition, the method is independent from calcium so that also calcium-independent alkyl ligands can be inhibited here (e.g. lyso paf). The clinical success against alkyl ligands is thus supported and can be carried out by skilled persons.
The FIGS. 5 to 7 thus show the novel screening procedure solves a novel technical problem, namely the variety of damaging alkyl lipids. The quantification is easier using fixed cells as the difficult acetylation step of alkyl lipids is removed which is required for calcium dependent quantification methods. Using fixed cells, cell lines also labelled antibodies and/or soluble transport-binding proteins can be tested and produced.
(§1) FIGS. 5 to 7 investigated for the first time binding of [^3H]alkyl-paf or [^3H]acetyl group after treatment with formaldehyde (1%, 30 min) comparing different temperatures, indicated concentrations and said Ginkgoloides. The allosteric binding of [^3H]alkyl groups was reached only at 20° C. while [^3H]acetyl groups bound at 4° C. excluding allosteric effects.
Platelets were treated with formaldehyde (1%, 30 min, n=6). Values are expressed as bound [^3H]alkyl-paf to […]. […]

[2] = system: washed aspirinated platelets; test: Binding of [3H]alkyl-paf / [3H]alkyl-lyso paf to washed aspirinated platelets and formation of AAGPC, LA-paf (FIG. 2); assay type: cell-based, human; conditions: FIG. 2C; normolipidemic platelets, [3H]-alkyl-lyso paf 0.065 nM, 40 nM antagonist, 0.25% BSA
Procedure: These women with “OMIH”-syndrome show overweight (aged 34±11 years, BMI: […]), raised LDL (167±15 mg/dl, HDL: 76±41 mg/dl) and triglyceride levels (206±27 mg/dl) borderline hypertension (125±13/88±10 mmHg) and disturbed glucose tolerance (1 h: 170±61 mg/dl).
Ginkgoloides with free albumin (BSA) inhibited here the binding of [^3H]alkyl-paf to “OMIH”-platelets after three washes (FIG. 2 A+B). […] Normolipidemic platelets do nearly not incorporate [^3H]alkyl-paf or [^3H]alkyl-lyso paf and form nearly no AAGPC and LA-paf in the presence of Ginkgoloides and free albumin (FIG. 2C).
AAGPC and LA-paf are chemically alkyl-acyl-sn-glycero-phosphocholines. […] Values are fmol per 10^8 platelets and are means±1 S.D. from three different experiments as described (R. Korth et al. Chem. Phys. Lipids 70(1994), 109-119).

[3] = system: metabolic syndrome mediated by LA-paf; conditions: Wu et al. J. Int. Med. 246, 1999; cited from earlier work
intact human platelets = test: Lipoprotein-triggered catabolism of [3H]alkyl-paf and formation of AAGPC and LA-paf by intact platelets (FIG. 3); assay type: cell-based; conditions: FIG. 3 C+D; [3H]alkyl-paf 0.65 nM; apo B 0.1 mg/ml, VLDL 80 μg/ml
Procedure: Only LDL but not ApoB and not VLDL overcome the protection by albumin (FIG. 3E versus 3D). […] In the presence (A+C) or absence (B) of washed platelets nearly no AAGPC with derivatives and products is formed. The acetylhydrolases form lyso paf and LDL, of apoB and VLDL also form lyso paf whereby the uptake of lyso paf is triggered by LDL.
[^3H]alkyl-lyso paf was stable in the albumin buffer as well (B: 0.25% BSA, 30 min, 20° C.). […] Overall, purified LDL-particles rather than isolated apoB trigger uptake and formation of AAGPC and/or LA-paf. Values are expressed as percent of added label bound to platelets. Cells were separated using vacuum filtration as described (R. Korth et al. Chem. Phys. Lipids 70, 109-119, 1994). Values were expressed as percent of added label. Values are means±1.S.D. of three different experiments.

[4] = target: T1, paf receptors of formaldehyde-treated platelets; test: Binding of [3H]acetyl paf to formaldehyde-fixed platelets at 4° C. (FIG. 5); conditions: unlabeled paf 50 nM, [3H]acetyl paf 0.65 nM or 0.065 nM
Procedure: (FIG. 5D versus 5C). The allosteric alkyl effects are inhibited by stiffening of the membrane so that the scavenger-like allosteric configuration change of cells is shown as mentioned before. In contrast, the [^3H]acetyl group of paf binds at 4° C. to fixed cells treated prior to the last wash with formaldehyde to be subsequently cooled and stiffened (1%, 30 min, A+B). The acetyl group binds and covers paf receptors without allosteric upregulation so that acetylating compounds are using this effect in accordance with the invention.
as §1
Unlabeled paf (50 nM) competed showing specific binding of [^3H]acetyl paf. […] Next, [^3H]alkyl-paf failed binding to stiffened platelets at 4° C. showing moderate specific binding only at 20° C. (C: 0.65 nM, 30 min, 20° C.). […] Values are expressed as bound labelled ligands to 10^8 platelets. Platelets were separated with vacuum filtration and means±1 S.D. are from three experiments.

T1 sequence (P25105 whole entry): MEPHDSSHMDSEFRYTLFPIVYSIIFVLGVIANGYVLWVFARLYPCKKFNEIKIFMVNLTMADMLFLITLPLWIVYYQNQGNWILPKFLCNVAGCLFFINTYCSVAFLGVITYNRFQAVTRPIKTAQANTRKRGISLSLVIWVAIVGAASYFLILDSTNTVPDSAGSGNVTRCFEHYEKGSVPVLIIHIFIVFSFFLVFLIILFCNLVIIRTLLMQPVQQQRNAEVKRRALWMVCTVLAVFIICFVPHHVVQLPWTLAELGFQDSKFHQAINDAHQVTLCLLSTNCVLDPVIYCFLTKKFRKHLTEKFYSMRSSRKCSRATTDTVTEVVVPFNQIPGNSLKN

Compound: Purified albumin: free, delipidated albumin (BSA), representative non-specific antagonist
- protection of intact cells as non-specific antagonist (human neutrophils): protected

Compound: CC1C(=O)OC2C(O)C34C5CC(C(C)(C)C)C36C(OC(=O)C6O)OC4(C(=O)O5)C12O (stereo not drawn) [BN 52021]
- inhibition of bound [3H]alkyl-paf ([1]; FIG. 6, platelets treated with formaldehyde 1%, 30 min 20° C.): concentration-dependent inhibition

Compound: Cc1nnc2n1-c1sc(CCC(=O)N3CCOCC3)cc1C(c1ccccc1Cl)=NC2 [WEB 2086]
- inhibition of bound [3H]alkyl-paf to stiffened platelets [1]: inhibited
- formation of cellular metabolites (AAGPC, LA-paf) from [3H]-alkyl-lyso paf [2]: without relevant formation of indicated cellular metabolites
- treatment of metabolic syndrome with thickening of the intima and borderline hypertension [3]: successfully treated

Compound: ApoB: isolated apo B (Sigma Chemical)
- formation of lyso paf and cellular uptake (intact human platelets): form lyso paf without cellular uptake

Compound: CCCCCCCCCCCCCCCCOC[C@H](COP(=O)([O-])OCC[N+](C)(C)C)OC(C)=O [synthetic paf]
- competition with [3H]acetyl paf binding [4]: competed
- competition with formation of AAGPC/LA-paf (human neutrophils; unlabeled paf 5 nM, [3H]-alkyl-paf 0.65 nM or 6.5 nM, n=3): did not compete
- inhibition of bound [3H]alkyl-paf to stiffened platelets [1]: inhibited at low concentrations
